Structures are written as SMILES.

The values that follow come from patent US20260347364A1, “PYRAZOLO[4,3-F]QUINAZOLINE DERIVATIVES AS MODULATORS OF G12D MUTANT KRAS USEFUL FOR THE TREATMENT OF CANCER” (JAZZ PHARMACEUTICALS IRELAND LTD., priority 2023, published 2026).

For experiment [1], the target named is T1, KRAS G12D (Homo sapiens, UniProt P01116, G12D).
T1 construct: aa1-188 KRAS WT, HRAS WT, NRAS WT, or KRAS containing the G12D
Nature of the experiment: HTRF nucleotide exchange assay, KRAS G12D. The class given is biochemical. Particulars: class symbols; for IC50: HTRF nucleotide exchange assay (NEA). On the technique in general: In TR-FRET formats the signal depends on donor and acceptor labels being close together.

The target in experiment [2] is T2, KRAS WT (Homo sapiens, UniProt P01116).
T2 construct: aa1-188 KRAS WT
The experiment in a line: HTRF nucleotide exchange assay, KRAS WT. The class given is biochemical. The note with it: class symbols; for IC50: HTRF nucleotide exchange assay (NEA).

In the case of `CCc1c(F)ccc2cc(O)cc(-c3cc4nc(OCC5(CN6CCCC6)CC5)nc(N5CCCn6nc(C(=O)N(C)C)cc6C5)c4c4cn(C)nc34)c12` [Example 52], the figures for the IC50 in experiment [1] and in experiment [2] were at most 10 nM and 10 to 100 nM, respectively.

In the case of `CCc1c(F)ccc2cc(O)cc(-c3cc4nc(OC[C@]5(C)CCCN5)nc(N5CCCn6nc(C(=O)N(C)C)cc6C5)c4c4cn(C)nc34)c12` [Example 53, 5-[4-(8-ethyl-7-fluoro-3-hydroxy-1-naphthyl)-2-methyl-7-[[(2S)-2-methylpyrrolidin-2-yl]methoxy]pyrazolo[4,3-f]quinazolin-9-yl]-N,N-dimethyl-4,6,7,8-tetrahydropyrazolo[1,5-a][1,4]diazepine-2-carboxamide], the IC50 in experiment [1] is 100 to 10000 nM. Besides, the “KRAS^WT NEA” value in experiment [2] is recorded as “D (<49% inhibition at 10 μM)”.

On to `Cn1cc2c(n1)c(-c1cc(O)cc3c1C(=O)CCC3)cc1nc(OC[C@@]34CCCN3C[C@H](F)C4)nc(N3CCCOCC3)c12` [Example 58, 6-hydroxy-8-[2-methyl-9-(1,4-oxazepan-4-yl)-7-[[(2R,8S)-2-fluoro-1,2,3,5,6,7-hexahydropyrrolizin-8-yl]methoxy]pyrazolo[4,3-f]quinazolin-4-yl]tetralin-1-one], for which the “KRAS^G12D NEA” value in experiment [1] was “D (<49% inhibition at 10 μM)”. In addition, in experiment [2], the “KRAS^WT NEA” value was “D (<49% inhibition at 10 μM)”.

For the compound `CCc1c(F)ccc2cc(O)cc(-c3cc4nc(OC[C@@]56CCCN5C[C@H](F)C6)nc(N5CCCn6nccc6C5)c4c4cn(C)nc34)c12` [Example 59, 5-ethyl-6-fluoro-4-[2-methyl-7-[[(2R,8S)-2-fluoro-1,2,3,5,6,7-hexahydropyrrolizin-8-yl]methoxy]-9-(4,6,7,8-tetrahydropyrazolo[1,5-a][1,4]diazepin-5-yl)pyrazolo[4,3-f]quinazolin-4-yl]naphthalen-2-ol], the IC50 in experiment [1] is at most 10 nM; in experiment [2] it was 10 to 100 nM.

Regarding `Cc1cc2[nH]ncc2c(-c2cc3nc(OC[C@@]45CCCN4C[C@H](F)C5)nc(N4CCCn5nc(C(=O)N(C)C)cc5C4)c3c3cn(C)nc23)c1C` [Example 60, 5-[4-(5,6-dimethyl-1H-indazol-4-yl)-2-methyl-7-[[(2R,8S)-2-fluoro-1,2,3,5,6,7-hexahydropyrrolizin-8-yl]methoxy]pyrazolo[4,3-f]quinazolin-9-yl]-N,N-dimethyl-4,6,7,8-tetrahydropyrazolo[1,5-a][1,4]diazepine-2-carboxamide], the IC50 was 10 to 100 nM in experiment [1] and 100 to 10000 nM in experiment [2].

For the compound `CN(C)C(=O)c1cc2n(n1)CCCN(c1nc(OC[C@@]34CCCN3C[C@H](F)C4)nc3cc(-c4cc(O)c(F)c5ccccc45)c4nn(C)cc4c13)C2` [Example 61, 5-[4-(4-fluoro-3-hydroxy-1-naphthyl)-2-methyl-7-[[(2R,8S)-2-fluoro-1,2,3,5,6,7-hexahydropyrrolizin-8-yl]methoxy]pyrazolo[4,3-f]quinazolin-9-yl]-N,N-dimethyl-4,6,7,8-tetrahydropyrazolo[1,5-a][1,4]diazepine-2-carboxamide], the results for the IC50 in experiment [1] and in experiment [2] were 10 to 100 nM and 100 to 10000 nM, respectively.

Regarding `CN(C)C(=O)c1cc2n(n1)CCCN(c1nc(OC[C@@]34CCCN3C[C@H](F)C4)nc3cc(-c4cc(O)ccc4C#N)c4nn(C)cc4c13)C2` [Example 62], the concentration for half-maximal inhibition (IC50) was in the range of 10 to 100 nM in experiment [1] and 100 to 10000 nM in experiment [2].

Regarding `CCc1c(F)ccc2cccc(-c3cc4nc(OC[C@@]56CCCN5C[C@H](F)C6)nc(N5CCCn6nc(C(=O)N(C)C)cc6C5)c4c4cn(C)nc34)c12` [Example 63, 5-[4-(8-ethyl-7-fluoro-1-naphthyl)-2-methyl-7-[[(2R,8S)-2-fluoro-1,2,3,5,6,7-hexahydropyrrolizin-8-yl]methoxy]pyrazolo[4,3-f]quinazolin-9-yl]-N,N-dimethyl-4,6,7,8-tetrahydropyrazolo[1,5-a][1,4]diazepine-2-carboxamide], the 50% inhibitory concentration (IC50) in experiment [1] is at most 10 nM; in experiment [2], 10 to 100 nM.

In the case of `C#Cc1c(F)ccc2cc(O)cc(-c3cc4nc(OC[C@@]56CCCN5C[C@H](F)C6)nc(N5CCCn6nc(C(=O)N(C)C)cc6C5)c4c4cn(C)nc34)c12` [Example 65, 5-[4-(8-ethynyl-7-fluoro-3-hydroxy-1-naphthyl)-2-methyl-7-[[(2R,8S)-2-fluoro-1,2,3,5,6,7-hexahydropyrrolizin-8-yl]methoxy]pyrazolo[4,3-f]quinazolin-9-yl]-N,N-dimethyl-4,6,7,8-tetrahydropyrazolo[1,5-a][1,4]diazepine-2-carboxamide], the IC50 in experiment [1] and in experiment [2] was at most 10 nM each time.

`CCC1CCCc2cc(O)cc(-c3cc4nc(OC[C@@]56CCCN5C[C@H](F)C6)nc(N5CCCOCC5)c4c4cn(C)nc34)c21` (stereo partly drawn) [Example 66, 1-ethyl-8-[2-methyl-9-(1,4-oxazepan-4-yl)-7-[[(2R,8S)-2-fluoro-1,2,3,5,6,7-hexahydropyrrolizin-8-yl]methoxy]pyrazolo[4,3-f]quinazolin-4-yl]tetralin-6-ol]: the IC50 in experiment [1] and in experiment [2] was 10 to 100 nM each time.

`CCc1c(F)ccc2cc(O)cc(-c3cc4nc(OCC5(CN6CCOCC6)CC5)nc(N5CCCn6nc(C(=O)N(C)C)cc6C5)c4c4cn(C)nc34)c12` [Example 69, 5-[4-(8-ethyl-7-fluoro-3-hydroxy-1-naphthyl)-2-methyl-7-[[1-(morpholinomethyl)cyclopropyl]methoxy]pyrazolo[4,3-f]quinazolin-9-yl]-N,N-dimethyl-4,6,7,8-tetrahydropyrazolo[1,5-a][1,4]diazepine-2-carboxamide]: the values for the concentration for half-maximal inhibition (IC50) in experiment [1] and in experiment [2] were at most 10 nM and 10 to 100 nM, respectively.

As to `CCc1c(F)ccc2cc(O)cc(-c3cc4nc(OC[C@@H]5CCN5C)nc(N5CCCn6nc(C(=O)N(C)C)cc6C5)c4c4cn(C)nc34)c12` [Example 70], the 50% inhibitory concentration (IC50) is at most 10 nM in experiment [1] and 10 to 100 nM in experiment [2].

Regarding `CCc1c(F)ccc2cc(O)cc(-c3cc4nc(OCC5(CN6CCC[C@H]6C(F)(F)F)CC5)nc(N5CCCn6nc(C(=O)N(C)C)cc6C5)c4c4cn(C)nc34)c12` [Example 71], the “KRAS^G12D NEA” value in experiment [1] is on record as “D (<49% inhibition at 10 μM)”. Also, in experiment [2], the “KRAS^WT NEA” value is listed as “D (<49% inhibition at 10 μM)”.

As for `CCc1c(F)ccc2cc(O)cc(-c3cc4nc(OC[C@@]56CCCN5C[C@H](F)C6)nc(N5CCCn6nc(C)cc6C5)c4c4cn(C)nc34)c12` [Example 72], the 50% inhibitory concentration (IC50) was at most 10 nM in experiment [1] and 10 to 100 nM in experiment [2].

For `CCc1c(F)ccc2cc(O)cc(-c3cc4nc(OC[C@@]56CCCN5C[C@H](F)C6)nc(N5CCCn6nc(C#N)cc6C5)c4c4cn(C)nc34)c12` [Example 73, 5-[4-(8-ethyl-7-fluoro-3-hydroxy-1-naphthyl)-7-[[(2R,8S)-2-fluoro-1,2,3,5,6,7-hexahydropyrrolizin-8-yl]methoxy]-2-methyl-pyrazolo[4,3-f]quinazolin-9-yl]-4,6,7,8-tetrahydropyrazolo[1,5-a][1,4]diazepine-2-carbonitrile], the concentration for half-maximal inhibition (IC50) is at most 10 nM in experiment [1] and 10 to 100 nM in experiment [2].

On to `Cc1cc2[nH]ncc2c(-c2cc3nc(OC[C@@]45CCCN4C[C@H](F)C5)nc(N4CCCn5nc(C(=O)N(C)C)cc5C4)c3c3cn(C)nc23)c1C1CC1` [Example 74, 5-[4-(5-cyclopropyl-6-methyl-1H-indazol-4-yl)-2-methyl-7-[[(2R,8S)-2-fluoro-1,2,3,5,6,7-hexahydropyrrolizin-8-yl]methoxy]pyrazolo[4,3-f]quinazolin-9-yl]-N,N-dimethyl-4,6,7,8-tetrahydropyrazolo[1,5-a][1,4]diazepine-2-carboxamide], for which the IC50 is at most 10 nM in experiment [1] and 10 to 100 nM in experiment [2].

On to `CN(C)C(=O)c1cc2n(n1)CCCN(c1nc(OC[C@@]34CCCN3C[C@H](F)C4)nc3cc(-c4cccc5sc(N)c(C#N)c45)c4nn(C)cc4c13)C2` [Example 76, 5-[4-(2-amino-3-cyano-benzothiophen-4-yl)-7-[[(2R,8S)-2-fluoro-1,2,3,5,6,7-hexahydropyrrolizin-8-yl]methoxy]-2-methyl-pyrazolo[4,3-f]quinazolin-9-yl]-N,N-dimethyl-4,6,7,8-tetrahydropyrazolo[1,5-a][1,4]diazepine-2-carboxamide], for which the IC50 was at most 10 nM in experiment [1] and 10 to 100 nM in experiment [2].

As for `Cc1cc(N)nc(-c2cc3nc(OC[C@@]45CCCN4C[C@H](F)C5)nc(N4CCCn5nc(C(=O)N(C)C)cc5C4)c3c3cn(C)nc23)c1C(F)(F)F` [Example 77, 5-[4-[6-amino-4-methyl-3-(trifluoromethyl)-2-pyridyl]-7-[[(2R,8S)-2-fluoro-1,2,3,5,6,7-hexahydropyrrolizin-8-cyl]methoxy]-2-methyl-pyrazolo[4,3-f]quinazolin-9-yl]-N,N-dimethyl-4,6,7,8-tetrahydropyrazolo[1,5-a][1,4]diazepine-2-carboxamide], the concentration for half-maximal inhibition (IC50) in experiment [1] and in experiment [2] was 100 to 10000 nM each time.

For the compound `CCc1c(F)ccc2cc(O)cc(-c3cc4nc(OC[C@@]56CCCN5C[C@H](F)C6)nc(N5CCCn6nc(C(=O)N(C)C)cc6C5)c4c4cn(CC(F)(F)F)nc34)c12` [Example 78, 5-[4-(8-ethyl-7-fluoro-3-hydroxy-1-naphthyl)-7-[[(2R,8S)-2-fluoro-1,2,3,5,6,7-hexahydropyrrolizin-8-yl]methoxy]-2-(2,2,2-trifluoroethyl)pyrazolo[4,3-f]quinazolin-9-yl]-N,N-dimethyl-4,6,7,8-tetrahydropyrazolo[1,5-a][1,4]diazepine-2-carboxamide], the IC50 was at most 10 nM in experiment [1] and 100 to 10000 nM in experiment [2].

As for `CCc1c(F)ccc2cc(O)cc(-c3c(C)c4nc(OC[C@@]56CCCN5C[C@H](F)C6)nc(N5CCCOCC5)c4c4cn(C)nc34)c12` [Example 79, 4-[2,5-dimethyl-9-(1,4-oxazepan-4-yl)-7-[[(2R,8S)-2-fluoro-1,2,3,5,6,7-hexahydropyrrolizin-8-yl]methoxy]pyrazolo[4,3-f]quinazolin-4-yl]-5-ethyl-6-fluoro-naphthalen-2-ol], the IC50 in experiment [1] and in experiment [2] was at most 10 nM each time.

The term IC50 denotes the concentration at which inhibition is half-maximal.
